Reference: publication PMC6856131, “Pathways to defense metabolites and evading fruit bitterness in genus Solanum evolved through 2-oxoglutarate-dependent dioxygenases” (Nature Communications, 2019)

Legend:
ScGAME32-8380-1-1 = test system: T1, ScGAME32-8380-1-1; assay: hydroxylation assay, UPLC-qTOF-MS; assay type: biochemical, Solanum chacoense; details: alpha-ketoglutarate 10 mM, ascorbate 10 mM, FeSO4 500 uM, pH 7.5, 30 °C, 3 h; standard contains isomer impurities
T1 construct: pET28b, E. coli BL21 (DE3), Ni-NTA purified
T1 sequence (DOC6856131_6 entry or part of it): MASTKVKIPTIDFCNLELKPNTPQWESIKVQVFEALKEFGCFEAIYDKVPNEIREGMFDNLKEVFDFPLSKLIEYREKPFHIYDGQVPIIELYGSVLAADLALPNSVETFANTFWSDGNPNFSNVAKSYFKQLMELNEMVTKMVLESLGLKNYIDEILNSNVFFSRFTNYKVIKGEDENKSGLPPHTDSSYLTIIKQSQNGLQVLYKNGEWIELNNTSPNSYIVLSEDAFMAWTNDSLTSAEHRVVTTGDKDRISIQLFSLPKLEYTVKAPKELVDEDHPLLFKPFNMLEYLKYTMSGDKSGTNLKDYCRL

ScGAME32-8380-1-2 = test system: T2, ScGAME32-8380-1-2; assay: hydroxylation assay, UPLC-qTOF-MS; assay type: biochemical, Solanum chacoense; details: alpha-ketoglutarate 10 mM, ascorbate 10 mM, FeSO4 500 uM, pH 7.5, 30 °C, 3 h; standard contains isomer impurities
T2 construct: pET28b, E. coli BL21 (DE3), Ni-NTA purified
T2 sequence (DOC6856131_7 entry or part of it): as the sequence (DOC6856131_6 entry or part of it) above, with M288L, L292N, S301Y counted along it

GAME31 (tomato) = molecular target: T3, GAME31 (tomato) (Solanum lycopersicum, UniProt A0A6F8PJG0); assay type: biochemical; details: alpha-ketoglutarate 10 mM, ascorbate 10 mM, FeSO4 500 uM, pH 7.5, 30 °C, 3 h
T3 construct: gene 23DOX
T3 sequence (A0A6F8PJG0 entry or part of it): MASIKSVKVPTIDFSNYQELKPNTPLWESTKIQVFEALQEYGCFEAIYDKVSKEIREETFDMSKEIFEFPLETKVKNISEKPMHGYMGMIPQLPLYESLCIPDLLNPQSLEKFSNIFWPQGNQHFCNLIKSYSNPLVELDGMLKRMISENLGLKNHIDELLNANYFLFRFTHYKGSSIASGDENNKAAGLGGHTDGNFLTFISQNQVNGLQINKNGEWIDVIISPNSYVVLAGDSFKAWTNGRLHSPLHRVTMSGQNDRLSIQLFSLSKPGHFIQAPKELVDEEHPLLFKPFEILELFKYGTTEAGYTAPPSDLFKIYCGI

Row | SMILES | hydroxylation assay, UPLC-qTOF-MS (ScGAME32-8380-1-1) | hydroxylation assay, UPLC-qTOF-MS (ScGAME32-8380-1-2) | hydroxylation assay, UPLC-qTOF-MS (GAME31 (tomato))
1 | C[C@H]1CC[C@@H]2[C@@H](C)[C@H]3[C@H](C[C@H]4[C@@H]5CC=C6C[C@@H](O[C@@H]7O[C@H](CO)[C@@H](O[C@@H]8O[C@@H](C)[C@H](O)[C@@H](O)[C@H]8O)[C@H](O)[C@H]7O[C@@H]7O[C@@H](C)[C@H](O)[C@@H](O)[C@H]7O)CC[C@]6(C)[C@H]5CC[C@]34C)N2C1 [α-chaconine] | Incubation of ScGAME32-8380-1-1 or ScGAME32-8380-1-2 with α-chaconine and α-solanine resulted in the formation | Incubation of ScGAME32-8380-1-1 or ScGAME32-8380-1-2 with α-chaconine and α-solanine resulted in the formation | 
2 | C[C@@H]1CC[C@@]2(NC1)O[C@H]1C[C@H]3[C@@H]4CC=C5C[C@@H](O[C@@H]6O[C@H](CO)[C@@H](O[C@@H]7O[C@@H](C)[C@H](O)[C@@H](O)[C@H]7O)[C@H](O)[C@H]6O[C@@H]6O[C@@H](C)[C@H](O)[C@@H](O)[C@H]6O)CC[C@]5(C)[C@H]4CC[C@]3(C)[C@H]1[C@@H]2C [α-solamargine] |  |  | hydroxy-solasodine, and hydroxy-solamargine from dehydrotomatine, solasodine, and α-solamargine, respectively
